Data on 2 compounds can be found in patent US11660324B2, “Copper complexes for treatment of neurodegenerative disorders” (ALS Therapy Development Institute, priority 2019, dated 2023).

Series [1] in a line: Pharmacokinetics of CuPTSM compared to CuATSM (plasma and spinal cord) after single oral bolus. The series is classed as in vivo. The following applies: single oral bolus 30 mg/kg, SOD1^G93A mice. Here is the method:
The SOD1^G93A transgenic mouse model of ALS has been the most widely used animal model since the 1990s. The mouse was genetically engineered to overexpress a mutant form of the human Cu/Zn superoxide dismutase 1 (SOD1) gene harboring an ALS-associated glycine to alanine mutation at amino acid position 93 (G93A). Currently, the clinical strategy for the treatment of ALS with CuATSM is to escalate human dosing until ALS patients show plasma levels equivalent to those seen in mice given 30 mg/kg/day.
To compare the effects of CuPTSM to CuATSM in vivo, a single bolus of 30 mg/kg CuPTSM or 30 mg/kg CuATSM in an oral suspension of 0.5% methylcellulose/0.4% TWEEN-80/0.9% normal saline was administered to SOD1^G93A mice. Absorption half-life, elimination half-life, and Cmax measurements were taken from both plasma and spinal cord samples to measure drug exposure of CuPTSM or CuATSM for up to 6 hr after administration of drug.
Similar measurements were recorded for concentrations of CuPTSM and CuATSM in the spinal cord. […] As with the plasma concentrations, the spinal cord concentrations of CuATSM remained constant, even 6 hr after administration (FIG. 2B).

The next series relates to male SOD1^G93A mice. Nature of the series: Compound muscle action potential (CMAP), sciatic nerve / tibialis anterior. The series is classed as in vivo. The protocol:
Compound muscle action potential (CMAP) was measured in mice given CuPTSM, CuATSM, or vehicle. CMAP is an electrophysiological technique that assess functional integrity of motor axons. The sciatic nerve is stimulated using implanted microelectrodes proving small electrical currents, and the response is measured in the innervated tibialis anterior (TA) muscle using an implanted recording electrode. It is known that the CMAP signal is decreased in the case of neuromuscular diseases, like in ALS patients, and recapitulated in the SOD1^G93A mouse model due to motor unit loss. In male SOD1^G93A mice, it has been shown that CMAP changes may happen as early as age day 50 and invariably worse after. In the present study, mice were treated once a day for 14 days with 2, 6, or 12 mg/kg CuPTSM; 10 or 30 mg/kg CuATSM; or vehicle (control). A total of 9 male mice were tested for each condition.
Prior to drug administration and assignment of mice to a cohort, CMAP was recorded for each mouse to establish a baseline measurement. Mice were then randomized into each treatment cohort, and administered the respective compounds and dosages of the cohort via oral gavage daily for two weeks. CMAP data was recorded at the end of the two weeks, and compared to the baseline measurements to calculate percent of baseline to illustrate the efficacy of CuPTSM and CuATSM compared to just vehicle.

Series [2] has as its system SOD1^G93A mice. The experiment in a line: Survival / lifespan. The series is classed as in vivo. Here is the method:
(§1) To test the efficacy of CuPTSM compared to CuATSM, mice were tested for delays in paresis and overall lifespan. Mice were given 6 mg/kg CuPTSM (n=32), 30 mg/kg CuATSM (n=32), and 100 mg/kg CuATSM (n=32) once a day to assess disease progression, and identify drug-induced changes in SOD1^G93A mice compared to their respective vehicle-only control mice. Neurological scoring to test the onset of paresis for each mouse was performed throughout the study according to the protocol as disclosed in Hatzipetros et al. (2015, J. Visualized Experiments. doi:10.3791/53257), incorporated herein by reference in its entirety. Briefly, mice were scored on a scale of NS 0 (pre-symptomatic) to NS 4 (humane end-point) based on a combination of a tail suspension test, a walking test, and a “righting reflex” test.
Survival for each cohort was also tracked throughout the study.
(§2) To compare the effects of CuPTSM administered at a much lower dose than CuATSM, mice were administered 6 mg/kg […] and survival and onset of paresis were measured as before.

The nature of series [3]: Pharmacokinetic simulation of repeated dosing, linear kinetics assumed. On the set-up: species or system mice. The following applies: simulation from single-dose PK parameters. Here is the method:
FIG. 3A is a simulation using PK parameters derived from the experiment of FIG. 1A and FIG. 1B, assuming linear pharmacokinetics. Plasma concentrations (ng/mL) in mice receiving 6 mg/kg CuPTSM, 30 mg/kg CuATSM, or 100 mg/kg CuATSM are depicted over time (hours). FIG. 3B is a simulation using PK parameters derived from the experiment of FIG. 1A and FIG. 1B, assuming linear pharmacokinetics. Spinal cord concentrations (ng/mL) in mice receiving 6 mg/kg CuPTSM, 30 mg/kg CuATSM, or 100 mg/kg CuATSM are depicted over time (hours).
Using the data and parameters derived from the above experiments using a single bolus of 6 mg/kg CuPTSM, 30 mg/kg CuATSM, or 100 mg/kg CuATSM, plasma and spinal cord concentrations were recorded on a plot over time (hours) to illustrate pharmacokinetic simulations over time. Linear kinetics were assumed. […] Similar results were obtained when concentrations were measured in spinal cord samples (FIG. 3B).

Series [4] concerns SOD1^G93A mice. The experiment in a line: Onset of paresis by neurological scoring. In kind it is in vivo. The protocol:
as §1, §2

In a further series the test system is mice. Nature of the series: Tolerability in mice (previous studies). The following applies: 30 mg/kg. The series is classed as in vivo.

The term Cmax denotes the maximum level reached in the sampled fluid or tissue. Consider `CN=C([S-])N/N=C(C)/C(C)=N/NC([S-])=NC.[Cu+2]` [CuATSM], for which the absorption half-life in series [1] (plasma) came out at 0.24 h; in series [1] (spinal cord), 0.65 h. For the same compound, the elimination half-life came out at 13.7 h in series [1] (plasma) and 13.8 h in series [1] (spinal cord). Also, in series [1] (plasma), the “plasma Cmax” value is reported as 198 ng/mL. Also, the Cmax in series [1] (spinal cord) was 2 ng/mL. For the same compound, the “CMAP change from baseline compared to vehicle” value (shortened to “CMAP change from baseline”) in the series on male SOD1^G93A mice (10 mg/kg oral gavage once a day for 14 days) and in the series with male SOD1^G93A mice (30 mg/kg oral gavage once a day for 14 days) was “no significant difference in CMAP measurements” in each case. Also, the “survival compared to control” value was “no significant difference in survival” in the series with SOD1^G93A mice [2] (6 mg/kg once a day), “increase in survival over the control counterparts” in the series with SOD1^G93A mice [2] (30 mg/kg once a day) and “increase in survival over the control counterparts” in the series on SOD1^G93A mice [2] (100 mg/kg once a day). Besides, the “simulated plasma concentration before the next dose” value in series [3] (30 mg/kg) and in series [3] (100 mg/kg) was “did not return to 0 ng/mL prior the next dose” each time. The “onset of paresis compared to control” value in the series on SOD1^G93A mice [4] (6 mg/kg once a day) was “no significant improvement in onset of paresis”; with SOD1^G93A mice [4] (30 mg/kg once a day) it was “delaying onset over the control”; with SOD1^G93A mice [4] (100 mg/kg once a day), “delaying onset over the control”. Besides, the tolerability in mice result with mice was “well-tolerated”.

Consider `CN=C([S-])N/N=C/C(C)=N/NC([S-])=NC.[Cu+2]` [CuPTSM, copper PTSM], for which, in series [1] (plasma), the absorption half-life came out at 0.54 h, the elimination half-life is 2.44 h and the “plasma Cmax” value is reported as 1565 ng/mL. In addition, in series [1] (spinal cord), the Cmax stood at 7.27 ng/mL, the absorption half-life was determined as 1.0 h and the elimination half-life was 1.9 h. The “CMAP change from baseline” value in the series with male SOD1^G93A mice (2 mg/kg oral gavage once a day for 14 days) is “significantly greater change from baseline”. Moreover, in the series on male SOD1^G93A mice (6 mg/kg oral gavage once a day for 14 days), the “CMAP change from baseline” value is listed as “significantly greater change from baseline”. Further, the “CMAP change from baseline” value with male SOD1^G93A mice (12 mg/kg oral gavage once a day for 14 days) is reported as “significantly greater change from baseline”. Besides, in the series on SOD1^G93A mice [2] (6 mg/kg once a day), the “survival compared to CuATSM 30 and 100 mg/kg groups” value is “markedly improved survival”; the “survival compared to control” value is “increase in survival over the control counterparts”. In series [3] (6 mg/kg), the “simulated plasma concentration before the next dose” value was “plasma levels returned to 0 ng/mL prior to the next dose”. In the series on SOD1^G93A mice [4] (6 mg/kg once a day), the “delay of onset of paresis compared to CuATSM 30 and 100 mg/kg groups (each over its respective control)” value is “significantly delayed onset of paresis over CuATSM”; the “onset of paresis compared to control” value was “delaying onset over the control”. Besides, in the series on mice, the tolerability in mice result is “toxic to mice”.
